Laboratory results taken from patent US20260262643A1, “HERBICIDAL BENZOXAZINES” (FMC CORPORATION, priority 2022, published 2026).

Assays:
[1] = test system: goosegrass; assay: Test A postemergence; assay type: in vivo, Eleusine indica; settings: 1000 g ai/ha, Postemergence, 0 to 100 scale
Excerpt: (§1) Seeds of plant species selected from barnyardgrass (Echinochloa crusgalli), blackgrass (Alopecurus myosuroides), corn (Zea mays), foxtail, giant (giant foxtail, Setaria faberi), goosegrass (Eleusine indica), kochia (Bassia scoparia), oat, wild (wild oat, Avena fatua), pigweed, palmer (palmer amaranth, palmer pigweed, Amaranthus palmeri), Pigweed, Redroot (redroot pigweed, Amaranthus retroflexus), ragweed (common ragweed, Ambrosia artemisiifolia), ryegrass, Italian (italian ryegrass, Lolium multiflorum), soybean (Glycine max), and wheat (Triticum aestivum) were planted into a blend of loam soil and sand and treated preemergence with a directed soil spray using test chemicals formulated in a non-phytotoxic solvent mixture which included a surfactant. At the same time, plants selected from these crops and weed species and also galium (catchweed bedstraw, Galium aparine) and horseweed (Erigeron canadensis) were planted in pots containing the same blend of loam soil and sand and treated with postemergence applications of test chemicals formulated in the same manner. Plants ranged in height from 2 to 10 cm and were in the one- to two-leaf stage for the postemergence treatment. Treated plants and untreated controls were maintained in a greenhouse for 10 days, after which time all treated plants were compared to untreated controls and visually evaluated for injury. Plant response ratings, summarized in Table A, are based on a 0 to 100 scale where 0 is no effect and 100 is complete control. A dash (-) response means no test result.

[2] = test system: ducksalad; assay: Test B flooded paddy test; assay type: in vivo, Heteranthera limosa; settings: 250 g ai/ha, Flood, 13 days, 0 to 100 scale (0 no effect, 100 complete control)
Experimental: (§2) Plant species in the flooded paddy test selected from barnyardgrass (Echinochloa crus-galli), ducksalad (Heteranthera limosa), rice (Oryza sativa), and sedge, umbrella (small-flower umbrella sedge, Cyperus difformis) were grown to the 2-leaf stage for testing. At time of treatment, test pots were flooded to 3 cm above the soil surface, treated by application of test compounds directly to the paddy water, and then maintained at that water depth for the duration of the test. Treated plants and controls were maintained in a greenhouse for 13 days, after which time all species were compared to controls and visually evaluated. Plant response ratings, summarized in Table B, are based on a scale of 0 to 100 where 0 is no effect and 100 is complete control. A dash (-) response means no test result.

[3] = test system: ragweed; assay: Test A postemergence; assay type: in vivo, Ambrosia artemisiifolia; settings: 1000 g ai/ha, Postemergence, 0 to 100 scale
Excerpt: as §1

[4] = test system: blackgrass; assay: Test A preemergence; assay type: in vivo, Alopecurus myosuroides; settings: 1000 g ai/ha, 0 to 100 scale (0 no effect, 100 complete control), 10 days
Excerpt: as §1

[5] = test system: barnyardgrass; assay: Test B flooded paddy test; assay type: in vivo, Echinochloa crus-galli; settings: 250 g ai/ha, Flood, 13 days, 0 to 100 scale (0 no effect, 100 complete control)
Experimental: as §2

[6] = test system: ryegrass, Italian; assay: Test A preemergence; assay type: in vivo, Lolium multiflorum; settings: 1000 g ai/ha, 0 to 100 scale (0 no effect, 100 complete control), 10 days
Excerpt: as §1

[7] = test system: ryegrass, Italian; assay: Test A postemergence; assay type: in vivo, Lolium multiflorum; settings: 1000 g ai/ha, Postemergence, 0 to 100 scale
Excerpt: as §1

[8] = test system: sedge, umbrella; assay: Test B flooded paddy test; assay type: in vivo, Cyperus difformis; settings: 250 g ai/ha, Flood, 13 days, 0 to 100 scale (0 no effect, 100 complete control)
Experimental: as §2

[9] = test system: foxtail, giant; assay: Test A postemergence; assay type: in vivo, Setaria faberi; settings: 1000 g ai/ha, Postemergence, 0 to 100 scale
Excerpt: as §1

[10] = test system: kochia; assay: Test A preemergence; assay type: in vivo, Bassia scoparia; settings: 1000 g ai/ha, 0 to 100 scale (0 no effect, 100 complete control), 10 days
Excerpt: as §1

[11] = test system: goosegrass; assay: Test A preemergence; assay type: in vivo, Eleusine indica; settings: 1000 g ai/ha, 0 to 100 scale (0 no effect, 100 complete control), 10 days
Excerpt: as §1

[12] = test system: horseweed; assay: Test A postemergence; assay type: in vivo, Erigeron canadensis; settings: 1000 g ai/ha, Postemergence, 0 to 100 scale
Excerpt: as §1

[13] = test system: pigweed, palmer; assay: Test A postemergence; assay type: in vivo, Amaranthus palmeri; settings: 1000 g ai/ha, Postemergence, 0 to 100 scale
Excerpt: as §1

[14] = test system: blackgrass; assay: Test A postemergence; assay type: in vivo, Alopecurus myosuroides; settings: 1000 g ai/ha, Postemergence, 0 to 100 scale
Excerpt: as §1

[15] = test system: ragweed; assay: Test A preemergence; assay type: in vivo, Ambrosia artemisiifolia; settings: 1000 g ai/ha, 0 to 100 scale (0 no effect, 100 complete control), 10 days
Excerpt: as §1

[16] = test system: kochia; assay: Test A postemergence; assay type: in vivo, Bassia scoparia; settings: 1000 g ai/ha, Postemergence, 0 to 100 scale
Excerpt: as §1

[17] = test system: galium; assay: Test A postemergence; assay type: in vivo, Galium aparine; settings: 1000 g ai/ha, Postemergence, 0 to 100 scale
Excerpt: as §1

[18] = test system: foxtail, giant; assay: Test A preemergence; assay type: in vivo, Setaria faberi; settings: 1000 g ai/ha, 0 to 100 scale (0 no effect, 100 complete control), 10 days
Excerpt: as §1

[19] = test system: pigweed, palmer; assay: Test A preemergence; assay type: in vivo, Amaranthus palmeri; settings: 1000 g ai/ha, 0 to 100 scale (0 no effect, 100 complete control), 10 days
Excerpt: as §1

[20] = test system: rice; assay: Test B flooded paddy test; assay type: in vivo, Oryza sativa; settings: 250 g ai/ha, Flood, 13 days, 0 to 100 scale (0 no effect, 100 complete control)
Experimental: as §2

Cc1cccc2c1O[C@H](C(F)(F)F)CN2C(=O)c1cccc(-n2cncn2)c1 (single isomer, unassigned) [Compound 58]
pest or weed control at 1000 g/ha ([1]; Eleusine indica, post-emergence, 240 h, read-out: Plant response rating, Goosegrass): 20%
pest or weed control at 250 g/ha ([2]; Heteranthera limosa, 312 h, read-out: Plant response rating, Ducksalad): 0%
pest or weed control at 1000 g/ha ([3]; Ambrosia artemisiifolia, post-emergence, 240 h, read-out: Plant response rating, Ragweed): 10%
pest or weed control at 1000 g/ha ([4]; Alopecurus myosuroides, pre-emergence, 240 h, read-out: Plant response rating, Blackgrass): 40%
pest or weed control at 250 g/ha ([5]; Echinochloa crus-galli, 312 h, read-out: Plant response rating, Barnyardgrass): 0%
pest or weed control at 1000 g/ha ([6]; Lolium multiflorum, pre-emergence, 240 h, read-out: Plant response rating, Ryegrass, Italian): 90%
pest or weed control at 1000 g/ha ([7]; Lolium multiflorum, post-emergence, 240 h, read-out: Plant response rating, Ryegrass, Italian): 30%
pest or weed control at 250 g/ha ([8]; Cyperus difformis, 312 h, read-out: Plant response rating, Sedge, Umbrella): 0%
pest or weed control at 1000 g/ha ([9]; Setaria faberi, post-emergence, 240 h, read-out: Plant response rating, Foxtail, Giant): 30%
pest or weed control at 1000 g/ha ([10]; Bassia scoparia, pre-emergence, 240 h, read-out: Plant response rating, Kochia): 20%
pest or weed control at 1000 g/ha ([11]; Eleusine indica, pre-emergence, 240 h, read-out: Plant response rating, Goosegrass): 90%
pest or weed control at 1000 g/ha ([12]; Erigeron canadensis, post-emergence, 240 h, read-out: Plant response rating, Horseweed): 0%
pest or weed control at 1000 g/ha ([13]; Amaranthus palmeri, post-emergence, 240 h, read-out: Plant response rating, Pigweed, Palmer): 20%
pest or weed control at 1000 g/ha ([14]; Alopecurus myosuroides, post-emergence, 240 h, read-out: Plant response rating, Blackgrass): 20%
pest or weed control at 1000 g/ha ([15]; Ambrosia artemisiifolia, pre-emergence, 240 h, read-out: Plant response rating, Ragweed): 0%
pest or weed control at 1000 g/ha ([16]; Bassia scoparia, post-emergence, 240 h, read-out: Plant response rating, Kochia): 60%
pest or weed control at 1000 g/ha ([17]; Galium, post-emergence, 240 h, read-out: Plant response rating, Galium): 60%
pest or weed control at 1000 g/ha ([18]; Setaria faberi, pre-emergence, 240 h, read-out: Plant response rating, Foxtail, Giant): 80%
pest or weed control at 1000 g/ha ([19]; Amaranthus palmeri, pre-emergence, 240 h, read-out: Plant response rating, Pigweed, Palmer): 80%
plant injury at 250 g/ha ([20]; Oryza sativa, 312 h, read-out: Plant response rating, Rice): 0%

Cc1cc(C(=O)N2CC(C)Oc3c(Cl)cccc32)cc(-n2cncn2)c1 (stereo not shown) [Compound 32]
Plant response rating, Goosegrass [1]: 80
Plant response rating, Ducksalad [2]: 0
Plant response rating, Ragweed [3]: 20
Plant response rating, Blackgrass [4]: 80
Plant response rating, Barnyardgrass [5]: 0
Plant response rating, Ryegrass, Italian [6]: 100
Plant response rating, Ryegrass, Italian [7]: 90
Plant response rating, Sedge, Umbrella [8]: 0
Plant response rating, Foxtail, Giant [9]: 100
Plant response rating, Kochia [10]: 30
Plant response rating, Goosegrass [11]: 100
Plant response rating, Horseweed [12]: 0
Plant response rating, Pigweed, Palmer [13]: 70
Plant response rating, Blackgrass [14]: 80
Plant response rating, Ragweed [15]: 0
Plant response rating, Kochia [16]: 60
Plant response rating, Galium [17]: 100
Plant response rating, Foxtail, Giant [18]: 100
Plant response rating, Pigweed, Palmer [19]: 90
Plant response rating, Rice [20]: 0
